Data on two compounds can be found in patent US8076485B2, “Methylphenidate derivatives and uses of them” (priority 2005, dated 2011).

Structures are written as SMILES.

The subject of data set [1] is erythropoietin (EPO). Briefly: Erythropoietin (EPO) release from HepG2 cells (ELISA). Format: cell-based, human. To be noted: 24 hours. The protocol:
HepG2 is a human hepatic cancer cell line, which was obtained from ATCC. HepG2 cells were grown to confluence in 25 cm^2 flasks in IMDM medium containing 10% FCS. Then, the cells were trypsinized as follows. The medium in each flask was aspirated and replaced with 5 ml of 0.025% trypsin/EDTA (Cambrex). The cells were monitored on a microscope until they no longer adhered to the flasks. Then, 5 ml of trypsin neutralizing solution (TNS) (Cambrex) were added to each flask to stop the reaction. The cell suspension was centrifuged at 1000 rpm for 10 minutes, and the supernatants were aspirated. The cells were reconstituted in fresh medium and counted. Then, 4 ml of the cell suspension in medium containing at 1.22×10^6 cells/ml were mixed with an additional 1 ml of medium. Next, 0.5 ml/well of the resulting cell suspension was added to wells in a 24-well culture plate (about 500,000 cells/well). The cells were treated as indicated in Table 5 below and incubated for 24 hours at 37° C., with or without 5% CO2. The supernatants were removed from the wells and centrifuged to remove debris. Next, the supernatants were analyzed for erythropoietin (EPO) production. EPO was measured by ELISA using a kit obtained from R & D Systems, Minneapolis, Minn. (catalog no. DE900) following the manufacturer's instructions.

Data set [2] relates to CD3/CD28 stimulated TRiPS cells. Description: Custom AntibodyArray of cell extracts of CD3/CD28 stimulated TRiPS cells. Format: cell-based, human. The conditions noted are these: 15 μg/ml, 30 minutes; antibody array, phospho-specific detection. How it is done: Day 18 TRiPS cells, 1×10^6, were incubated for 30 minutes at 37° C., either with nothing added (“Nil”), with 1 μl CD3/CD28 Dynabeads (Dynal, Oslo, Norway) (“CD3/CD28 beads”) per 100,000 cells, or with CD3/CD28 beads and 15 μg/ml of the compound of formula II (Cpd II). After the incubation, the cells were lysed in Cell-Lytic Mammalian Cell Extraction Reagent (Sigma). After centrifugation to pellet cellular debris, the supernatants (cell extracts) were obtained.
The cell extracts (supernatants) were then analyzed using a Custom AntibodyArray™ manufactured by Hypromatrix Inc., Worcester, Mass., following the manufacturer's instructions. The Custom AntibodyArray™ is a nylon membrane blotted with antibodies to the proteins listed below. Briefly, the cell extracts were incubated with duplicate Custom AntibodyArray™, s for 2 hours at room temperature with slow shaking, followed by three washes with Tris buffer (150 mM NaCl, 25 mM Tris, 0.05% Tween-20, pH 7.5). HRP-labeled antibodies specific for phosphorylated-tyrosine, phosphorylated-serine and phosphorylated-threonine in Tris buffer were added, and the arrays incubated for 2 hours. After three more washes with Tris buffer, a peroxidase-reactive luminescent substrate was added. The arrays were visualized by exposure to X-ray film. Densitometry of the X-ray films was measured by scanning and computer analysis.

The subject of data set [3] is IL-8. Briefly: IL-8 production by CD3/CD28-activated TRiPS cell line (ELISA). Format: cell-based, human. To be noted: 15 μg/ml; CD3/CD28 Dynabeads, 24 hours.
The test system of data set [4] is IL-8. Description: IL-8 release from LPS-stimulated THP-1 monocytes (ELISA). Format: cell-based. To be noted: THP-1, LPS 200 ng/ml; Cpd II 15 μg/ml, Dex 10 μM. How it is done:
THP-1 is a monocyte cell line obtained from American Type Culture Collection (ATCC) (catalog no. TIB-202). […] After 1 hour, lipopolysaccharide (LPS) (obtained from Sigma) was added to the cultures to give a final concentration of 200 ng/ml, and the cells were then incubated for an additional 4 hours or for an additional 24 hours. After the incubation, the cells were centrifuged, and the supernatants were collected. The concentrations of IL-8 and TNFα in the supernatants were determined by ELISA.
The concentrations of IL-8 in the supernatants were determined by ELISA performed as described in Example 4.

In data set [5] the test system is Jurkat T-lymphocyte leukemia cell line. Description: Jurkat cell viability (ETH-D1 / calcein AM). Format: cell-based. To be noted: Jurkat cells, 72 hours, control 20.85% ± 1.42%. How it is done:
The Jurkat T-lymphocyte leukemia cell line was obtained from American Type Culture Collection (ATCC), Rockville, Md. (catalog no. TIB-152). Jurkat cells, at 1×10^5 cells/ml, were cultured at 37° C. and 5% CO2 in IMDM medium (ATCC) with 10% FCS for 72 hours with 7.5 μg/ml or 15 μg/ml of the compound of formula II (Cpd II). Following the incubation, the cells were washed with Hepes buffered saline, split into three equal volumes, and then incubated with 5 μM ethidium bromide dimer-1 (ETH-D1) (obtained from Molecular Probes) and 5 μM calcein AM solution (obtained from Promega) for one hour at 37° C. and 5% CO2 in 96-well culture plates to assay for cell viability. The fluorescence in each well was measured using a plate reader at excitation/emission 485/530 nm and 530/645 nm. Relative percentage of dead to live cells was calculated by dividing ETH-D1 fluorescence by calcein AM fluorescence.

For data set [6] the following is noted: mice; cited from earlier work.

In the case of `COC(=O)C(c1ccc(-c2ccccc2)cc1)C1CCCCN1` (stereo not drawn) [Cpd II], in data set [1] (HepG2, hypoxia (5% CO2), Cpd II 15 μg/ml, LY 294002 25 μM, hypoxia alone 108.39 ± 2.81), the “Mean Units/ml EPO” value was 71.60 ± 2.01 Units/ml. In addition, in data set [1] (HepG2, hypoxia, 15 μg/ml), the “release of EPO from the HepG2 cells” value is reported as “significantly inhibited the release of EPO”. For the same compound, in data set [2], the “Effect of Cpd II on the protein in CD3/CD28 stimulated TRiPS cells: 14-3-3” value is recorded as “Slightly decreased the level”, the “Effect of Cpd II on the protein in CD3/CD28 stimulated TRiPS cells: IL-2” value is listed as “Decreased level back to basal levels (Nil control)”, the “Effect of Cpd II on the protein in CD3/CD28 stimulated TRiPS cells: IL-4” value is given as “Decreased level back to basal levels (Nil control)” and the “Effect of Cpd II on the protein in CD3/CD28 stimulated TRiPS cells: IL-7y” value is recorded as “Decreased level back to basal levels (Nil control)”. Besides, in data set [2], the “Effect of Cpd II on the protein in CD3/CD28 stimulated TRiPS cells: IkB-r” value is recorded as “Decreased level back to basal levels (Nil control)”, the “Effect of Cpd II on the protein in CD3/CD28 stimulated TRiPS cells: IkB-α” value is “Slightly decreased the level”, the “Effect of Cpd II on the protein in CD3/CD28 stimulated TRiPS cells: IkB-β” value is “Decreased level back to basal levels (Nil control)” and the “Effect of Cpd II on the protein in CD3/CD28 stimulated TRiPS cells: IkB-ε” value is listed as “Slightly decreased the level”. Also, in data set [2], the “Effect of Cpd II on the protein in CD3/CD28 stimulated TRiPS cells: JAK2” value was “Activated”, the “Effect of Cpd II on the protein in CD3/CD28 stimulated TRiPS cells: JNK1” value is “Decreased level back to basal levels (Nil control)”, the “Effect of Cpd II on the protein in CD3/CD28 stimulated TRiPS cells: JNK2” value is listed as “Decreased level back to basal levels (Nil control)” and the “Effect of Cpd II on the protein in CD3/CD28 stimulated TRiPS cells: JNK3” value is listed as “Decreased level back to basal levels (Nil control)”. Moreover, in data set [2], the “Effect of Cpd II on the protein in CD3/CD28 stimulated TRiPS cells: MEK1” value was “Decreased level to below basal levels (Nil control)”, the “Effect of Cpd II on the protein in CD3/CD28 stimulated TRiPS cells: MEKK1” value is “Decreased level back to basal levels (Nil control)”, the “Effect of Cpd II on the protein in CD3/CD28 stimulated TRiPS cells: PI3kinaseP85” value is “Activated” and the “Effect of Cpd II on the protein in CD3/CD28 stimulated TRiPS cells: RAP1” value was “Activated”. For the same compound, in data set [2], the “Effect of Cpd II on the protein in CD3/CD28 stimulated TRiPS cells: RAP2” value is listed as “Activated”, the “Effect of Cpd II on the protein in CD3/CD28 stimulated TRiPS cells: STAT4” value is “Activated”, the “Effect of Cpd II on the protein in CD3/CD28 stimulated TRiPS cells: STAT5b” value was “Activated” and the “Effect of Cpd II on the protein in CD3/CD28 stimulated TRiPS cells: STAT6” value is recorded as “Slightly decreased the level”. Further, the “IL-8 production by the TRiPS cell line” value in data set [3] is given as “no effect”. Besides, the “release of IL-8 from the LPS-stimulated monocytes” value in data set [4] was “significantly inhibited the release of IL-8”. Moreover, the “Relative Percentage Dead/Live” value in data set [5] (7.5 μg/ml) is given as 16.74% ± 2.15%. Also, the “Relative Percentage Dead/Live” value in data set [5] (15 μg/ml) is listed as 40.79% ± 1.81%.

In the case of `COC(=O)C(c1ccccc1)C1CCCCN1` (stereo not drawn) [methylphenidate], in data set [6], the carcinogenicity entry is recorded as “some evidence that methylphenidate is carcinogenic in mice”.
